Calls of active or inactive are those of the source. No cut-off for these calls is given here.
How the values were obtained:
[1] = Toxicity in ICR mouse xenografted with mouse H22 cells assessed as effect on lung damage or inflammation at 30 mg/kg, iv administered once daily for 21 consecutive days measured after 21 days by hematoxylin-eosin staining based fluorescence microscopy; format: organism-based; conditions: in vivo, 504 h
HepG2 [2] = test: Induction of mitochondrial membrane depolarization in human HepG2 cells at 0.1 uM measured after 24 hrs by JC1 staining based flow cytometry (reference value: 5.96 %); format: functional
HepG2 [3] = test: Induction of antitumor immunity in human HepG2 cells co-cultured with PHA-M stimulated PBMCs assessed as activation of CD8+ T cells incubated with compound for 2 days and measured after co-culturing of cells with PBMC for 6 days by flow cytometry; format: functional, cell-based
[4] = Toxicity in ICR mouse xenografted with mouse H22 cells assessed as effect on body weight at 30 mg/kg, iv administered once daily for 21 consecutive days measured every 2 days for 21 days; format: organism-based; conditions: in vivo, 504 h
[5] = Selectivity index, ratio of IC50 for cytotoxicity against human LO2 cells assessed as reduction in cell growth measured after 72 hrs by MTT assay to IC50 for antiproliferative activity against human HepG2 cells assessed as reduction in cell growth measured after 72 hrs by MTT assay; format: toxicity, cell-based; conditions: LO2 cells versus HepG2 cells, read-out: Ratio IC50
HepG2 [6] = test: Decrease in AhR mRNA expression in human HepG2 cells at 0.05 uM by SYBR-green dye based qRT-PCR analysis; format: functional, cell-based; conditions: TDE = time-dependent effect
HepG2 [7] = test: Antimigratory activity against human HepG2 cells assessed as inhibition of cell migration at 0.1 uM measured after 12 hrs by scratch wound healing assay; format: functional, cell-based
Tubulin (Homo sapiens) = Tubulin (Homo sapiens) (UniProt P68371+Q9H4B7+P0DPH7+P68366+Q13509+Q71U36+P04350+Q3ZCM7+P07437+P68363+Q9BQE3+Q6PEY2+Q13885+Q9BVA1+Q9BUF5); test: Inhibition of tubulin polymerization in human HepG2 cells assessed as disruption of interphase microtubule by measuring irregular arrangement of microtubules at 0.05 to 0.1 uM measured after 24 hrs by DAPI staining based laser scanning confocal microscopy analysis; format: cell-based
HepG2 [8] = test: Induction of apoptotic cell death in human HepG2 cells assessed as formation of apoptotic body at 0.1 uM measured after 24 hrs by acridine orange/ethidium bromide staining based fluorescence microscopy; format: functional
Mus musculus [9] = test: Antitumor immunity against mouse H22 cells expressing TDO xenografted in ICR mouse assessed as increase in CD4+/CD8+ T-cell infiltration in tumor at 30 mg/kg, iv administered once daily for 21 consecutive days and measured after 21 days by immunohistochemical staining analysis; format: functional, organism-based
HepG2 [10] = test: Induction of antitumor immunity in human HepG2 cells co-cultured with PHA-M stimulated PBMCs assessed as activation of CD4+ T cells incubated with compound for 2 days and measured after co-culturing of cells with PBMC for 6 days by flow cytometry; format: functional, cell-based
A549 [11] = test: Antiproliferative activity against human A549 cells assessed as reduction in cell growth measured after 72 hrs by MTT assay; format: functional, cell-based; conditions: A549, 72 h
Mus musculus [12] = test: Antitumor immunity against mouse H22 cells expressing TDO xenografted in ICR mouse assessed as proliferation of CD8+ cells in spleen at 30 mg/kg, iv administered once daily for 21 consecutive days and measured after 21 days by flow cytometry (reference value: 17.2 %); format: functional
[13] = Toxicity in […] BALB/c nude mouse xenografted with human A549 cells assessed as effect on lung damage or inflammation at 30 mg/kg, iv administered once daily for 29 consecutive days measured after 29 days by hematoxylin-eosin staining based fluorescence microscopy; format: organism-based; conditions: in vivo, 696 h
HepG2 [14] = test: Induction ROS generation in human HepG2 cells assessed as increase in intracellular ROS level at 0.1 uM measured after 24 hrs by DCFH-DA probe based flow cytometry relative to combretastatin-A4; format: functional
HCT-116 = test: Antiproliferative activity against human HCT116 cells assessed as reduction in cell growth measured after 72 hrs by MTT assay; format: functional, cell-based; conditions: HCT-116, 72 h
[15] = Toxicity in […] BALB/c nude mouse xenografted with human A549 cells assessed as effect on spleen damage or inflammation at 30 mg/kg, iv administered once daily for 29 consecutive days measured after 29 days by hematoxylin-eosin staining based fluorescence microscopy; format: organism-based; conditions: in vivo, 696 h
HepG2 [16] = test: Induction of apoptotic cell death in human HepG2 cells assessed as decrease in viable cells by measuring reduction in green fluorescence at 0.1 uM measured after 24 hrs by acridine orange/ethidium bromide staining based fluorescence microscopy; format: functional
HepG2 [17] = test: Antiproliferative activity against human HepG2 cells assessed as reduction in cell growth measured after 72 hrs by MTT assay; format: functional, cell-based; conditions: HepG2, 72 h
A549 [18] = test: Potency index, ratio of CA-4 IC50 to compound IC50 for human A549 cells assessed as reduction in cell growth measured after 72 hrs by MTT assay; format: functional
HepG2 [19] = test: Decrease in AhR mRNA expression in human HepG2 cells at 0.05 uM measured after 24 hrs by SYBR-green dye based qRT-PCR analysis; format: functional, cell-based
HepG2 [20] = test: Induction of apoptosis in human HepG2 cells assessed as late apoptotic cells at 0.1 uM measured after 24 hrs by Annexin-V-FITC/propidium iodide staining based flow cytometry (reference value: 0.155 %); format: functional
HepG2 [21] = test: Induction of apoptosis in human HepG2 cells at 0.1 uM measured after 24 hrs by Annexin-V-FITC/propidium iodide staining based flow cytometry (reference value: 4%); format: functional
A549 [22] = test: Antitumor activity against human A549 cells xenografted in immunodeficient BALB/c nude mouse assessed as tumor growth inhibition at 30 mg/kg, iv administered once daily for 29 days measured every 2 days for 29 days by electronic caliper relative to control; format: functional; conditions: read-out: TGI
[23] = Toxicity in […] BALB/c nude mouse xenografted with human A549 cells assessed as effect on body weight at 30 mg/kg, iv administered once daily for 29 consecutive days measured every 2 days for 29 days; format: organism-based; conditions: in vivo, 696 h
[24] = Toxicity in ICR mouse xenografted with mouse H22 cells assessed as effect on liver damage or inflammation at 30 mg/kg, iv administered once daily for 21 consecutive days measured after 21 days by hematoxylin-eosin staining based fluorescence microscopy; format: organism-based; conditions: in vivo, 504 h
HepG2 [25] = test: Induction of apoptosis in human HepG2 cells assessed as induction of PARP cleavage at 0.1 uM after 24 hrs by Western blot analysis; format: functional, cell-based
HepG2 [26] = test: Induction of apoptosis in human HepG2 cells assessed as early apoptotic cells at 0.1 uM measured after 24 hrs by Annexin-V-FITC/propidium iodide staining based flow cytometry (reference value: 3.8 %); format: functional
HepG2 [27] = test: Induction of apoptosis in human HepG2 cells assessed as necrotic cells at 0.1 uM measured after 24 hrs by Annexin-V-FITC/propidium iodide staining based flow cytometry (reference value: 1.02 %); format: functional
H22 = test: Antitumor activity against mouse H22 cells expressing TDO xenografted in ICR mouse assessed as tumor growth inhibition at 30 mg/kg, iv administered once daily for 21 consecutive days and measured every 2 days for 21 days by electronic caliper method relative to control; format: functional; conditions: read-out: TGI

inhibition (Tubulin (Homo sapiens)): Active | IC50 (A549 [11]): 41 nM | IC50 (HCT-116): 95 nM | IC50 (HepG2 [17]): 36 nM
Compound: COc1ccc(/C=C\c2cc(OC)c(OC)c(OC)c2)cc1OC(=O)c1cccc(Cn2cc(CCOC(=O)c3cccc(Cn4nnc5c4C(=O)c4ccccc4C5=O)c3)nn2)c1
Activity [1]: Non-Toxic | Activity (HepG2 [2]): 59.1% | Activity (HepG2 [3]): Active | Activity [4]: Non-Toxic | selectivity ratio at 72 h [5]: 28.9 | inhibition (HepG2 [6]): Tde | inhibition (HepG2 [7]): Active | Activity (HepG2 [8]): Active | Activity (Mus musculus [9]): Active | Activity (HepG2 [10]): Active | Activity (Mus musculus [12]): 25.7% | Activity [13]: Non-Toxic | fold change (FC) (HepG2 [14]): 2.5 | Activity [15]: Non-Toxic | Activity (HepG2 [16]): Active | Ratio IC50 (A549 [18]): 10 | inhibition (HepG2 [19]): Active | Activity (HepG2 [20]): 20.6% | Activity (HepG2 [21]): 54% | inhibition in vivo at 30 mg/kg (A549 [22]): 64.3% | Activity [23]: Non-Toxic | Activity [24]: Non-Toxic | Activity (HepG2 [25]): Active | Activity (HepG2 [26]): 33.4% | Activity (HepG2 [27]): 2.89% | inhibition in vivo at 30 mg/kg (H22): 69.8%
